Consider one compound from patent US9029582B2, “Pharmaceutical composition” (Capital, Business Y Gestion de Finanzas S.L., priority 2011, dated 2015).

Data set [1] can be described thus: Dissolution / reconstitution time at 50 mg/mL in castor oil, ethanol and benzyl alcohol solvent (benzyl benzoate-free). Type of data set: physicochemical. Particulars: solvent of castor oil and benzyl benzoate-free alcohol mixtures. As for the experimental part:
The lyophilizate should be reconstituted within a reasonable period, typically of less than 2 minutes (5); if reconstitution time is excessive, that is, more than 3 minutes, the user may get impatient or frustrated (6). […] This comparison was performed by dissolving fulvestrant at a concentration of 50 mg/mL, using a solvent comprising castor oil and benzyl benzoate-free alcohol mixtures.
A 50 mL Schott, type I, glass vial is placed on an Ohaus Adventurer balance. Then, 3.12 g Merck ethanol, 4.17 g Sigma-Aldrich benzyl alcohol and 12.70 g Sigma-Aldrich castor oil are added.
With the aid of a 1000 uL Eppendorf Research micropipette, 5 mL of the previously prepared solvent was added into an 11 mL Nuova Ompi type I of glass vial. The vial is capped with a solution S-additive plug from WestPharma and crimped with an aluminum seal.
The process for reconstituting a vial of lyophilizate of example 1 with the solvent of said example, using a Needle-less Transfer System Transfer Device 20/20 w/150 mic Filter Sterile from Westpharma, FIG. 9, is as follows:
10. The complete content of the syringe is discharged into the lyophilizate vial. […]
Using a Sper Scientific timer, it was determined that less than 90 seconds were required for reconstituting the lyophilizate. […]
It was determined that more than 60 minutes were required to completely dissolve Fulvestrant in the solvent using a Sper Scientific timer.

Data set [2] is described as follows: Stability test of the fulvestrant solution in acetic acid during 6 hours at room temperature (HPLC titer and impurities). Type of data set: physicochemical. Conditions: fulvestrant in glacial acetic acid. As for the experimental part: To a 10 mL beaker, fitted with a magnetic stirrer, 2.5 mL glacial acetic acid, Merck lot K 36685863, is added.
Fifty mg Fulvestrant from Scinopharm, lot#70850AA003 were weighed using an Ohaus model Adventurer balance.
Stirring of acetic acid is started and Fulvestrant is slowly added which is rapidly dissolved. After all Fulvestrant was added stirring is continued for 5 minutes.
Stirring is stopped and the solution is left at room temperature for 6 hours, then dissolution is analyzed in terms of titer and purity by HPLC, and compared to Scinopharm Fulvestrant as used for manufacturing the lyophilizate. HPLC determinations were carried out on an HPLC Waters with a Waters 1525 binary pump, Waters 717 autosampler, and a Waters 2996 diode array detector; the HPLC column used for determining titer and purity is an Agilent Eclipse XDB-C8 3.5 u 4.6×150 Rapid Res column; the chromatographic method corresponds to US Pharmacopeia (USP, 34 (2011)) monograph for Fulvestrant.

For data set [3] the following is noted: cited from earlier work.

For the compound `C[C@]12CC[C@@H]3c4ccc(O)cc4C[C@@H](CCCCCCCCC[S+]([O-])CCCC(F)(F)C(F)(F)F)[C@H]3[C@@H]1CC[C@@H]2O` (some centres unmarked) [Fulvestrant], in data set [1], the dissolution time entry is “more than 60 minutes”. Moreover, in data set [2], the “titer of the solution” value is reported as 99.2% and the “total impurities in the solution” value was 0.1%. Moreover, in data set [3] (carrier of US 6,774,122), the “solubility in castor oil with organic solvents (alcohol) and a non-aqueous ester-type solvent” value was “at least 50 mg/mL”. Moreover, in data set [3] (ethanol, ref (3) US 6,774,122), the solubility in ethanol result is “highly soluble”. Besides, the “fulvestrant solubility in propylene glycol” value in data set [3] (propylene glycol, according to ref (7) US 2009/0227549) is 4000 µg/mL. Moreover, the solubility in tert-butanol result in data set [3] (tert-butanol, ref (7)) was “highly soluble”. Moreover, the solubility in water result in data set [3] (water, ref (3)) was “practically insoluble”.
